# Columns and labels:
# [1] = molecular target: T1, Recombinant (1-346) HPK1 (h) (Homo sapiens, UniProt Q92918); test: HPK1 human STE kinase enzymatic radiometric assay; assay type: biochemical; settings: read-out: HPK1 IC50 nM Range
# T1 construct: Recombinant (1-346) HPK1 (h) is incubated with 8 mM MOPS pH 7.0
# T1 sequence (Q92918 1-346): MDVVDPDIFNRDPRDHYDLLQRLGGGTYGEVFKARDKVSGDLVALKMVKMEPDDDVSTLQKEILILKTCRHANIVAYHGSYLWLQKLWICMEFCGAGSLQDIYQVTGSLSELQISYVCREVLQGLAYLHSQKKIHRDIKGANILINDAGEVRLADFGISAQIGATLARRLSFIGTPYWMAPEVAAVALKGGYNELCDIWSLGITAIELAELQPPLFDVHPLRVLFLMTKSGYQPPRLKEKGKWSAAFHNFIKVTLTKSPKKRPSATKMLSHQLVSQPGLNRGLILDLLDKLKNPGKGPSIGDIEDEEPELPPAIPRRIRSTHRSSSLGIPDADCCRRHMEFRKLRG
# Method in brief: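 Recombinant HPK1 (1-346) incubated 40 min at RT with 0.33 mg/mL myelin basic protein and [gamma-33P]-ATP in 8 mM MOPS pH 7.0, 0.2 mM EDTA, 10 mM Mg acetate; reaction started with Mg/ATP. Stopped with 0.5% phosphoric acid, spotted on P30 filtermat, washed, scintillation counted. Compounds tested as 9-point 3-fold dilutions.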
# Lck (h) = Lck (h) (Homo sapiens, UniProt P06239); test: Lck human STE kinase enzymatic radiometric assay; assay type: biochemical; settings: read-out: Lck IC50 nM Range
# Lck (h), sequence (P06239 whole entry): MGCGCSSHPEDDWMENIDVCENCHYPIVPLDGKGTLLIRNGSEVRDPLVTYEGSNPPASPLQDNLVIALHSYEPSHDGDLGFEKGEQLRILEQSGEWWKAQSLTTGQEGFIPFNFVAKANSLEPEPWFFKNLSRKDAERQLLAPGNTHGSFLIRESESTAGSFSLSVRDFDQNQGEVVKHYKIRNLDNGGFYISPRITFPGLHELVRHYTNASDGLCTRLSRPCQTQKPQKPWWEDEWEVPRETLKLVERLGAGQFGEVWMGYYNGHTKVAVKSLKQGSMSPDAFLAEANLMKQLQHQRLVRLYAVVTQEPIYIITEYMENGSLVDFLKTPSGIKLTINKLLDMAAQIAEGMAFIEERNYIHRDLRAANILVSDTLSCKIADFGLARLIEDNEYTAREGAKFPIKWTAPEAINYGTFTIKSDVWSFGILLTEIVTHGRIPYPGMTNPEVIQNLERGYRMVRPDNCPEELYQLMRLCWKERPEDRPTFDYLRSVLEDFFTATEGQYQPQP
Compound,IC50 [1] [nM],IC50 (Lck (h)) [nM]
"CC(C)N1CC=C(c2ccc(-c3nc(-c4cc5c(cc4F)C(=O)NCC5)c(N)nc3F)cc2)CC1 [Example I-9, 6-(3-amino-5-fluoro-6-(4-(1-isopropyl-1,2,3,6-tetrahydropyridin-4-yl)phenyl)pyrazin-2-yl)-7-fluoro-3,4-dihydroisoquinolin-1(2H)-one]",0.1 to 10,101 to 1000
"CN(C)Cc1cc(-c2nc(-c3ccc4c(c3)C(F)(F)CNC4=O)c(N)nc2F)ccc1C1CCOCC1 [Example I-223, 6-(3-amino-6-(3-((dimethylamino)methyl)-4-(tetrahydro-2H-pyran-4-yl)phenyl)-5-fluoropyrazin-2-yl)-4,4-difluoro-3,4-dihydroisoquinolin-1(2H)-one]",0.1 to 10,> 1000
"CC(C)N1CCN(c2ccc(-c3nc(-c4cc5cc[nH]c(=O)c5cc4F)c(N)nc3F)cc2)CC1 [Example I-22, 6-(3-amino-5-fluoro-6-(4-(4-isopropylpiperazin-1-yl)phenyl)pyrazin-2-yl)-7-fluoroisoquinolin-1(2H)-one]",0.1 to 10,101 to 1000
"CC(C)N1CCC(c2ccc(-c3nc(-c4cc(F)c5c(c4)CCNC5=O)c(N)nc3F)cc2)CC1 [Example I-10, 6-(3-amino-5-fluoro-6-(4-(1-isopropylpiperidin-4-yl)phenyl)pyrazin-2-yl)-8-fluoro-3,4-dihydroisoquinolin-1(2H)-one]",0.1 to 10,101 to 1000
"C[C@@H]1CN(c2ccc(-c3nc(-c4ccc5c(c4)CCNC5=O)c(N)nc3F)cc2CN(C)C)CCO1 [Example I-172, (R)-6-(3-amino-6-(3-((dimethylamino)methyl)-4-(2-methylmorpholino)phenyl)-5-fluoropyrazin-2-yl)-3,4-dihydroisoquinolin-1(2H)-one]",0.1 to 10,> 1000
"Nc1nc(F)c(-c2ccc(N3CCN(CC4CC4)CC3)cc2)nc1-c1cc(F)c2c(=O)[nH]ccc2c1 [Example I-24, 6-(3-amino-6-(4-(4-(cyclopropylmethyl)piperazin-1-yl)phenyl)-5-fluoropyrazin-2-yl)-8-fluoroisoquinolin-1(2H)-one]",0.1 to 10,101 to 1000

# From patent publication US20240425479A1, “HALO-SUBSTITUTED AMINO AZA-HETEROARYL COMPOUNDS AS INHIBITORS OF THE HAEMATOPOIETIC PROGENITOR KINASE 1 (HPK1)” (priority 2021, published 2024)
